{"source": "patent US20140255432A1", "about": "“SILVESTROL, SILVESTROL ANALOGS AND USES THEREOF” (priority 2011, published 2014)", "assay_type_in_all_cases": "cell-based, human", "key": {"autologous LCL targets": {"tested_on": "autologous LCL targets", "assay": "Flow cytometry-based cytotoxicity assay (CFSE/7-AAD), effectors against autologous LCL", "protocol": "Non-radioactive flow cytometry-based cytotoxicity assays have been described previously (Godoy-Ramirez 2005; Helguera 2011). Co-cultures of PBMC and irradiated LCL were grown in the presence or absence of silvestrol for 14 d and collected. Fresh autologous LCL cells were stained with 200 nM carboxyfluorescein diacetate succinimidyl ester (CFSE) (CellTrace™, Invitrogen) for 15 min at 25° C. prior to being mixed with effectors from the irradiated co-cultures at an effector:target (E:T) ratio of 20:1 for 4 hr at 37° C. After the incubation, cells were stained with 7-aminoactinomycin D (7AAD) (BD Biosciences, San Diego, Calif.) and washed. Cytotoxicity was measured by gating on the CFSE-positive events and measuring the 7AAD-positive cells. (See FIGS. 31 and 32). For antibody-dependent cell-mediated cytotoxicity (ADCC) assays the same technique was used; however, the co-cultured effectors were natural killer (NK) cell-enriched and were incubated in the presence or absence of 5 μg/mL rituximab or herceptin (negative control) (Genentech, Inc., South San Francisco, Calif.) for 4 hr at 37° C.\nImmune cell function was then analyzed as part of the indirect anti-tumor activity of silvestrol. Cytotoxicity assays were performed. To investigate the effect of silvestrol on adaptive immunity, LCL cells were stained with the cell-tracking dye CFSE, then incubated at an effector to target ratio of 20:1 with autologous PBMC that had been cultured in the presence of irradiated LCL, with or without silvestrol, for 14 days. After a 4 hr incubation, cells were stained with the viability dye 7-AAD and washed. Cytotoxic activity against LCL targets was measured by gating on the CFSE positive events and measuring the 7-AAD positive cells (FIGS. 31-32). […] Data are shown relative to the vehicle-only control and are the averages of three independent experiments. Bars show −/+ standard deviation.\nGiven that LCL cells were depleted and effector cell cytotoxicity was maintained in non-irradiated co-cultures, whether silvestrol lowers the apoptotic threshold of the LCL tumor target was examined. PBMC were co-cultured with irradiated LCL in the absence of silvestrol for 14 days. These expanded effectors and fresh LCL each were separately incubated with silvestrol or vehicle control for 18 hr and washed. Cells were then combined, and after 4 hr incubation, cytotoxicity assays were performed as above. […] Data are shown relative to the vehicle-only control and are the averages of three independent experiments. Bars show −/+ standard deviation."}, "[1]": {"tested_on": "immune effector subsets (CD3+/CD4+, CD3+/CD8+, CD3-/CD56+)", "assay": "Irradiated LCL / autologous PBMC co-cultures, flow cytometry", "settings": "14 days", "protocol": "Lymphoblastoid cell lines (LCL) were derived in vivo by engrafting severe combined immune-deficient (SCID) mice (Taconic, Hudson N.Y.) with human peripheral blood mononuclear cells (PBMC) from a healthy EBV-positive donor as described (Rowe 1991; Baiocchi 1994). Co-cultures (Cocx) were created by mixing 5×10^4 LCL (either non-irradiated or irradiated with 14000 rad) per well with equal numbers of autologous PBMC in 96-well plates. Cultures were grown in the presence of 10 U/mL IL-2 and were given a single dose of silvestrol and cultured for 10-14 days.\nCells from irradiated or non-irradiated co-cultures were co-stained with LIVE/DEAD cell stain (Invitrogen, Grand Island, N.Y.) and hu-CD3-APC and either hu-CD4-PE, hu-CD-8-PE, hu-CD19-PE (BD Biosciences, San Diego, Calif.), or hu-CD56-PE (Beckman Coulter, Brea, Calif.). Live events were gathered by gating on cells negative for the LIVE/DEAD stain on an FC500 cytometer (Beckman Coulter). Cell viability was also measured by flow cytometry at 24, 72, and 120 hr using annexin-V-FITC and propidium iodide (PI) according to the manufacturer's instructions (BD Biosciences).\nTo explore the immune modulatory activity of silvestrol in EBV-LPD, in vitro co-cultures (CoCx) were used. These cultures were created by lethally irradiating LCL lines and mixing them at a ratio of 1:1 with PBMC from the same healthy donor from which the LCL was derived. The PBMC are activated and expand in response to the antigenic stimuli from the EBV-infected LCL (Rowe 1991; Baiocchi 1994; Mosier 1995). CoCx created using three LCL and their respective autologous PBMC were incubated in the presence of 10 U/mL IL-2 and treated with 0 (vehicle only), 2, 5, or 10 nM silvestrol for 14 days. Flow cytometric analysis was conducted. Cells were gated on Live events were gathered by gating on cells negative for the LIVE/DEAD stain. Data are expressed as percentage of viable population, relative to the vehicle CoCx condition, for total cells, CD3^+/CD4^+, CD3^+/C8^+, and CD3^−CD56^+ cells. Results shown are the averages from three individual CoCx. […] As the irradiated LCL were absent by this time, silvestrol allowed for expansion of the normal effector population following LCL exposure."}, "[2]": {"tested_on": "EBV-positive lymphoblastoid cell lines (LCL)", "assay": "MTS proliferation assay", "protocol": "MTS proliferation assays were performed according the CellTiter 96™ Aqueous Cell Proliferation Assay Technical Bulletin (Promega, Madison, Wis.). 5×10^4 cells were plated in each well of a 96-well plate at 37° C. and assayed for proliferation at 24, 72, and 120 hr.\nThe direct anti-tumor activity of silvestrol in leukemia and lymphoma models has been document (Hwang 2004; Bordeleau 2008; Cencic 2009; Lucas 2009 Alinari 2011; Saradhi 2011) as well as silvestrol's increased cytotoxicity to malignant B cells compared to normal blood lymphocytes (Lucas 2009). However, activity of silvestrol has not previously been described in spontaneous EBV-transformed cell lines. Silvestrol's activity in fully transformed EBV-positive LCL derived from tumors of SCID mice engrafted with PBMC from EBV-seropositive donors was observed. Six of these EBV-LCL lines were plated in the presence of low concentrations of silvestrol (2-50 nM), and apoptosis (viability assessed by annexin/PI flow cytometry) (FIG. 2A) and proliferation (MTS assay) (FIG. 2B) were evaluated at 24, 72, and 120 hr. Cells were plated at a sufficiently low density so that even after five days there was minimal loss of viability due to nutrient depletion in the untreated control. In FIG. 2A, data are shown as percent annexin-negative and PI-negative cells relative to the time-matched vehicle control. Bars show −/+ standard deviation. […]"}}, "data": [{"smiles": "COC(=O)[C@H]1[C@@H](O)[C@@]2(O)c3c(OC)cc(O[C@@H]4O[C@@H]([C@H](O)CO)CO[C@H]4OC)cc3O[C@@]2(c2ccc(OC)cc2)[C@@H]1c1ccccc1", "note": "[silvestrol]", "values": [{"measurement": "direct killing of autologous EBV+ LCLs by EBV-specific CTLs", "setting": "autologous LCL targets; 10 nM (FIG. 42)", "value": "not adversely affected"}, {"measurement": "cytotoxic activity against autologous LCL maintained, compared to effectors expanded without silvestrol", "setting": "autologous LCL targets; effectors expanded 14 days with 10 nM, E:T 20:1, 4 hr", "value": "over 70%"}, {"measurement": "ability of silvestrol-treated effectors to kill targets vs. untreated effectors", "setting": "autologous LCL targets; effectors incubated 18 hr with silvestrol, p=0.287", "value": "no decrease"}, {"measurement": "cytotoxic activity of effector populations against autologous EBV+ tumor cells", "setting": "autologous LCL targets; expanded 14 days in 2, 5, 10 nM, 3 donors (FIG. 17)", "value": "did not affect cytotoxic activity"}, {"measurement": "killing of LCL target cells pretreated with silvestrol vs. untreated targets", "setting": "autologous LCL targets; targets pretreated 18 hr, p<0.0001", "value": "more efficiently killed"}, {"measurement": "total number of cells expanded in CoCx", "setting": "[1]; 10 nM, 10 U/mL IL-2", "value": "lower than in the vehicle controls"}, {"measurement": "CD4+ T helper cell population relative to untreated CoCx", "setting": "[1]; 2, 5, 10 nM", "value": "mild decrease"}, {"measurement": "CD8+ cytotoxic T cell population relative to untreated CoCx", "setting": "[1]; 2, 5, 10 nM", "value": "mild decrease"}, {"measurement": "CD56+ natural killer cell population relative to untreated CoCx", "setting": "[1]; 2, 5, 10 nM", "value": "relative increase"}, {"measurement": "growth inhibition vs. untreated control", "setting": "[2]; 2-50 nM, 24, 72, 120 hr, p<0.0001 averaged over doses and time points", "value": "Moderate but significant activity"}, {"measurement": "IC50", "setting": "[2]; Homo sapiens, Lymphoblastoid cell, six EBV-LCL lines, 72 hr, estimated, read-out: 50% growth inhibitory concentration (IC50)", "value": "~40", "unit": "nM"}]}]}
